Results on 10 compounds are retold here after ChEMBL document CHEMBL5442334, “ASAP - In vitro safety pharmacology profile” (2024).

The target in data set [1] is Muscarinic acetylcholine receptor M3 (Homo sapiens) (UniProt P20309). In words: SafetyScreen: M3 Human Acetylcholine (Muscarinic) GPCR Binding Antagonist Radioligand LeadHunter Assay, catalogue number: 95. The conditions noted are these: Test compound concentration 10.0 uM.
Data set [2] relates to Voltage-gated sodium channel. The experiment in a line: SafetyScreen: Sodium Ion Channel Site 2 (Non-Selective) Rat Ion Channel [3H] Batrachotoxinin Binding LeadHunter Assay, catalogue number: 169. Type of data set: protein assay. The conditions noted are these: at 10 µM, test compound concentration 10 uM.
The target in data set [3] is T1, Endothelin-1 receptor (Homo sapiens) (UniProt P25101).
T1 sequence (whole entry): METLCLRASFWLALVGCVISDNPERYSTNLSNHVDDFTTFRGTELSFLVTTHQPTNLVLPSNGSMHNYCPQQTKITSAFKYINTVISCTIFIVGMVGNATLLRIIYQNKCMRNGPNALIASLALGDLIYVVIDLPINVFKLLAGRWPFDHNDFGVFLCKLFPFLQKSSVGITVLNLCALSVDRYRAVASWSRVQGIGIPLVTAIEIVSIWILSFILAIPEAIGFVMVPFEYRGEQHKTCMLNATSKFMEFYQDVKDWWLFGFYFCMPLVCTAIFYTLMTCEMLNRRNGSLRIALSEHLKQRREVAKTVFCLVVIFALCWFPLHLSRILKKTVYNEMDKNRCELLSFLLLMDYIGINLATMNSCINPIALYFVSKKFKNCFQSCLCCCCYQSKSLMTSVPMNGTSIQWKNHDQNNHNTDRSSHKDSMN
In words: SafetyScreen: ETA Human Endothelin GPCR Binding Agonist Radioligand LeadHunter Assay, catalogue number: 54. The following applies: Test compound concentration 10.0 uM.

Data set [4] has as its target Beta-2 adrenergic receptor (Homo sapiens) (UniProt P07550). The experiment in a line: SafetyScreen: beta2 Human Adrenoceptor GPCR Binding Antagonist Radioligand LeadHunter Assay, catalogue number: 20. The following applies: Test compound concentration 10.0 uM.
Data set [5] concerns the target Cannabinoid receptor 1 (Homo sapiens) (UniProt P21554). The experiment in a line: SafetyScreen: CB1 Human Cannabinoid GPCR Binding Agonist Radioligand LeadHunter Assay, catalogue number: 4708. The following applies: Test compound concentration 10.0 uM.
Data set [6] addresses T2, Androgen receptor (Homo sapiens) (UniProt P10275).
T2 sequence (whole entry): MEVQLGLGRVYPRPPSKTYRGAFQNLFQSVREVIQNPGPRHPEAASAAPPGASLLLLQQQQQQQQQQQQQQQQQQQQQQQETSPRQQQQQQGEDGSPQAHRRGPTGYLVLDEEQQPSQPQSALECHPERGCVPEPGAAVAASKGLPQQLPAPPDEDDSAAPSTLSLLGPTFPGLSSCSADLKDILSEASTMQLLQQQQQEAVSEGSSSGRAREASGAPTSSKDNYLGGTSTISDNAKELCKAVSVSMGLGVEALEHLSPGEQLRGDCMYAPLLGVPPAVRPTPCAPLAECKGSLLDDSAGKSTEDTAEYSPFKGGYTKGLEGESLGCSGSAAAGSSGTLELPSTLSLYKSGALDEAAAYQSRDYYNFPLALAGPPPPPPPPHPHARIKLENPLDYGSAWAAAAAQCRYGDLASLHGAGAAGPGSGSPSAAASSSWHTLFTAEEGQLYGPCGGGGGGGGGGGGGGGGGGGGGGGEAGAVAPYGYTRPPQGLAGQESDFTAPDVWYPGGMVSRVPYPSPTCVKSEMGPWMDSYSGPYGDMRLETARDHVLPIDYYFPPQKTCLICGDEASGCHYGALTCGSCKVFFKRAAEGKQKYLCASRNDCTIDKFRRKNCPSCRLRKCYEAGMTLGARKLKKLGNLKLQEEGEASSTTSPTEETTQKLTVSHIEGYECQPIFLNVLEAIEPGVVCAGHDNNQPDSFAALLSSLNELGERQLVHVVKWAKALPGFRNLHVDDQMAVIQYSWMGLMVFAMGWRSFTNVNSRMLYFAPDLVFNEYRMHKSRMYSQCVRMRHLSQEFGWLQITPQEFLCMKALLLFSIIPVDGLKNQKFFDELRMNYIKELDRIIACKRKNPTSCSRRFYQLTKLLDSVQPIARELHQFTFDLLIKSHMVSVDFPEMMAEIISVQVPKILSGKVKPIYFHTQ
In words: SafetyScreen: AR Human Androgen NHR Binding Agonist Radioligand LeadHunter Assay, catalogue number: 933. The following applies: Test compound concentration 10.0 uM.

The target in data set [7] is Neuronal acetylcholine receptor; alpha4/beta2 (Homo sapiens) (UniProt P17787+P43681). The experiment in a line: SafetyScreen: nAChR (alpha4/beta2) Human Ion Channel Binding Agonist Radioligand LeadHunter Assay, catalogue number: 3029. It counts as protein-complex assay. The conditions noted are these: Test compound concentration 10.0 uM.
Data set [8] has as its target Kappa-type opioid receptor (Homo sapiens) (UniProt P41145). The experiment in a line: SafetyScreen: kappa (KOP) Human Opioid GPCR Binding Agonist Radioligand LeadHunter Assay, catalogue number: 4461. The conditions noted are these: Test compound concentration 10.0 uM.
In data set [9] the target is T3, Muscarinic acetylcholine receptor M2 (Homo sapiens) (UniProt P08172).
T3 sequence (whole entry): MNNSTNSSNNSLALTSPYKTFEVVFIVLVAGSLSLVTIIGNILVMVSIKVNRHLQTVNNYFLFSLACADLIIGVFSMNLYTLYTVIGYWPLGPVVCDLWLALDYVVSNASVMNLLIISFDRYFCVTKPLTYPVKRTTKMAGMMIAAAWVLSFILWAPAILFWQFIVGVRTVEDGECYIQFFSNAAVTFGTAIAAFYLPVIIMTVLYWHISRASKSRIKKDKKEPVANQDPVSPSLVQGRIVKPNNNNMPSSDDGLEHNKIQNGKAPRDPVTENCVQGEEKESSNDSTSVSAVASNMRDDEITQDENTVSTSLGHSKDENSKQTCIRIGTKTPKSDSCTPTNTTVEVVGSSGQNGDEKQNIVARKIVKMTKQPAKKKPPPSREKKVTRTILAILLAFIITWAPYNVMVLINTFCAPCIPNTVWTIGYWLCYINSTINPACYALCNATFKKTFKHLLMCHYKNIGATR
In words: SafetyScreen: M2 Human Acetylcholine (Muscarinic) GPCR Binding Antagonist Radioligand LeadHunter Assay, catalogue number: 93. The following applies: Test compound concentration 10.0 uM.

The target in data set [10] is Sodium-dependent noradrenaline transporter (Homo sapiens) (UniProt P23975). The experiment in a line: SafetyScreen: NET Human Norepinephrine Transporter Binding Antagonist Radioligand LeadHunter Assay, catalogue number: 355. The conditions noted are these: Test compound concentration 10.0 uM.
Sequence of Sodium-dependent noradrenaline transporter (Homo sapiens) (P23975 whole entry): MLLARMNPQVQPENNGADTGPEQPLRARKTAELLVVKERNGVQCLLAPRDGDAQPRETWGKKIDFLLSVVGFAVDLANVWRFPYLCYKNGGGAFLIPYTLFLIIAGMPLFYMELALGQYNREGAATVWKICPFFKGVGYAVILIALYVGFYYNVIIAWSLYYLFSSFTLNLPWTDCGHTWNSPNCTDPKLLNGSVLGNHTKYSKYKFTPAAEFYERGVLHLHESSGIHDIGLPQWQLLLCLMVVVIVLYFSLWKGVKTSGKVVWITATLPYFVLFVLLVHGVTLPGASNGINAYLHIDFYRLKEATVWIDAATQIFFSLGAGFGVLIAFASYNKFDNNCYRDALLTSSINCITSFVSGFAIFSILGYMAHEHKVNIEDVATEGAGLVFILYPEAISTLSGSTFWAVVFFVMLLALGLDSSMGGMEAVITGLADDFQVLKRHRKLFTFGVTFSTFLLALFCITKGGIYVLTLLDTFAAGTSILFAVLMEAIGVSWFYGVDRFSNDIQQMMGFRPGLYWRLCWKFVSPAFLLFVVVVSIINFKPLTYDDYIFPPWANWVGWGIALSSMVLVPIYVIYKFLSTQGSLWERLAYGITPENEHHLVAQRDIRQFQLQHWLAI
In data set [11] the target is Delta-type opioid receptor (Homo sapiens) (UniProt P41143). The experiment in a line: SafetyScreen: delta (DOP) Human Opioid GPCR Binding Agonist Radioligand LeadHunter Assay, catalogue number: 114. The following applies: Test compound concentration 10.0 uM.
Sequence of Delta-type opioid receptor (Homo sapiens) (P41143 whole entry): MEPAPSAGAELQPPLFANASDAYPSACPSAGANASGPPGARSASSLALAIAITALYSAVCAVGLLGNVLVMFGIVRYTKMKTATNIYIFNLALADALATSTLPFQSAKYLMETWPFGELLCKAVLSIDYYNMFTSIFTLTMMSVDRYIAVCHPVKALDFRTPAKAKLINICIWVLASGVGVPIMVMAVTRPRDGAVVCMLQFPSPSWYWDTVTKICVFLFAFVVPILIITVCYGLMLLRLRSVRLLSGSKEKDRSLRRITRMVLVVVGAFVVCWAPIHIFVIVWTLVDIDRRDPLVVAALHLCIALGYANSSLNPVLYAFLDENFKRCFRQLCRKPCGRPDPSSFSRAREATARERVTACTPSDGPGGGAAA
Data set [12] addresses Voltage-gated L-type calcium channel (Rattus norvegicus, UniProt P22002+Q02485+P27732). The experiment in a line: SafetyScreen: Cav1.2 (L-type) Rat Calcium Ion Channel Binding (Dihydropyridine Site) LeadHunter Assay, catalogue number: 161. Type of data set: protein assay. The following applies: at 10 µM, test compound concentration 10 uM.
The species named for data set [13] is Rattus norvegicus. In words: SafetyScreen: KV (Non-Selective) Rat Potassium Ion Channel [125I] alpha-Dendrotoxin Binding LeadHunter Assay, catalogue number: 166. The conditions noted are these: Test compound concentration 10.0 uM.

Structures are written as SMILES.

By inhibition is commonly meant the drop in the measured response relative to a control, in per cent. Usually Inhibition stands for the change of the read-out against control, counted positive when it falls.

Sequence of Cannabinoid receptor 1 (Homo sapiens) (P21554 whole entry): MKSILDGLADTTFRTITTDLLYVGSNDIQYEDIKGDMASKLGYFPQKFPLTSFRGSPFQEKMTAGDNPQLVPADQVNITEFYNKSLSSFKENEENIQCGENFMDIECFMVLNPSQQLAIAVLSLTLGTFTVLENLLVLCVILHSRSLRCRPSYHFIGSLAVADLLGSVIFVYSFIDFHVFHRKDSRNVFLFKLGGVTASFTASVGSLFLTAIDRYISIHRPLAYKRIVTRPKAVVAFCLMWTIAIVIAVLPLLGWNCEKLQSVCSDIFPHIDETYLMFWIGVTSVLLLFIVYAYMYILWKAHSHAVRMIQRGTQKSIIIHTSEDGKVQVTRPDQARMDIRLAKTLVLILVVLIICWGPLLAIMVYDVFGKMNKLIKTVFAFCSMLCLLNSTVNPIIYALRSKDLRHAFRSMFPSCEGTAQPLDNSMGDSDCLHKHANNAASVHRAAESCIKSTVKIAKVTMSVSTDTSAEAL
Sequence of Muscarinic acetylcholine receptor M3 (Homo sapiens) (P20309 whole entry, looked up): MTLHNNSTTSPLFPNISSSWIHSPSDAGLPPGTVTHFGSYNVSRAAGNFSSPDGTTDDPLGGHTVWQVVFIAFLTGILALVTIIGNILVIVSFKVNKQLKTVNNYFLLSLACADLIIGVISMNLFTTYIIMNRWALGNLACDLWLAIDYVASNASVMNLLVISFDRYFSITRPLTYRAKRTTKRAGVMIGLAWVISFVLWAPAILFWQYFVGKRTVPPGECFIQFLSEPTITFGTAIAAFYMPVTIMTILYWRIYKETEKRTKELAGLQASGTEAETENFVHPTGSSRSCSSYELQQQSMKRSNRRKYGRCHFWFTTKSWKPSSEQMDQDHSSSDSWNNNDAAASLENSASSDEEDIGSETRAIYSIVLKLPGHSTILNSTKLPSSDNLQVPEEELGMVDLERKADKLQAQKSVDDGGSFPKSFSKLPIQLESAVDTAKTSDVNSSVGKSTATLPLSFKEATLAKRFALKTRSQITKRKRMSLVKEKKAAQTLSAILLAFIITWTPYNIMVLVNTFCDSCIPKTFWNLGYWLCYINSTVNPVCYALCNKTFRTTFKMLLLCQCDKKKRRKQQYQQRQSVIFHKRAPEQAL
Sequence of Beta-2 adrenergic receptor (Homo sapiens) (P07550 whole entry, looked up): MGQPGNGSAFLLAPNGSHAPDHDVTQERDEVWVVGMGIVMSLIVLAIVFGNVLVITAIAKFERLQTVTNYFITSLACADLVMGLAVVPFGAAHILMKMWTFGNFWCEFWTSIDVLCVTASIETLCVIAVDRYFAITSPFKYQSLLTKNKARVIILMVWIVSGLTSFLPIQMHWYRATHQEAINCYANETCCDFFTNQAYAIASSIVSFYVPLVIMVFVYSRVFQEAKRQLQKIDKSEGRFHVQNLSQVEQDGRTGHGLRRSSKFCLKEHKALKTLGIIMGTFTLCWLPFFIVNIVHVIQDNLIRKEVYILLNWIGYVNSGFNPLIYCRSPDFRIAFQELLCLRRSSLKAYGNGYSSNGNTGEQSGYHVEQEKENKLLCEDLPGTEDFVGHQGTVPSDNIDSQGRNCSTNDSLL
Sequence of Kappa-type opioid receptor (Homo sapiens) (P41145 whole entry): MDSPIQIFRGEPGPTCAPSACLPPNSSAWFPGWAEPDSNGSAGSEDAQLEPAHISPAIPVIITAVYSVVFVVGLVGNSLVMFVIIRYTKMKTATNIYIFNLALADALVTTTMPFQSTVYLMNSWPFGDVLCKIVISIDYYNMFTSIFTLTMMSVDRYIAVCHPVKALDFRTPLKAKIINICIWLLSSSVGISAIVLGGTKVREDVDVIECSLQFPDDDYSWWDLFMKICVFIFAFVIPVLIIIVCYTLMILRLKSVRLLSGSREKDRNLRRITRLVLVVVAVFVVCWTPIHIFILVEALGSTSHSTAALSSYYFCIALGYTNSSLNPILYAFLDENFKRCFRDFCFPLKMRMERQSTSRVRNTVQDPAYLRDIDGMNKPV

For `CC(C)[C@@H](Nc1ncnc2[nH]c(-c3cnn(C)c3C#N)cc12)c1ccc2c(n1)OCCO2`, the inhibition is 1% in data set [1]; 5% in data set [3]; 3% in data set [4]; 14% in data set [5]; 12% in data set [6]; -2% in data set [7]. Besides, the inhibition in [8] turned out to be 56%; in data set [9] it was 15%; in [10], 4%; in [11], 71%; in data set [13], 2%. For the same compound, the Inhibition in data set [2] was 12%; in [12], 10%.

For the compound `CNCc1cc(-c2cc3c(N[C@@H](c4ccc5c(c4)S(=O)(=O)CCC5)C(C)C)ncnc3[nH]2)co1`, the inhibition in [1] was 5%; in data set [3], -1%; in [4], 6%; in [5], 3%; in [6], 10%; in data set [7] it was 0%. Moreover, the inhibition in data set [8] came to 57%; in [9], 52%; in [10], 39%; in data set [11], 53%; in data set [13], 1%. Moreover, the results for the Inhibition in data set [2] and in [12] were 19% and -3%, respectively.

`COc1ccc([C@H](Cc2nnn[nH]2)NC(=O)c2ncnc3[nH]ccc23)cc1`: the Inhibition in data set [2] is reported as -3%; in data set [12] it was -22%. Further, the inhibition in [3] was 2%; in [4], -6%; in data set [5] it was -8%; in data set [6] it was -2%; in [7], 4%; in [8], 2%. The inhibition is -5% in [10] and -1% in [13].

In the case of `Cc1nn(C)cc1-c1cc2c(N[C@H](c3ccc4c(c3)S(=O)(=O)CCC4)C(C)C)ncnc2[nH]1`, the inhibition in data set [1] was -9%; in data set [3] it was -4%; in data set [4] it was -7%; in data set [5] it was 0%; in data set [6] it was 6%; in data set [7], -2%. The inhibition in [8] was 45%; in [9] it was 5%; in data set [10], -2%; in data set [11], 16%; in data set [13] it was 1%. In addition, the results for the Inhibition in data set [2] and in [12] were -1% and 12%, respectively.

As for `CC(C)[C@H](Nc1ncnc2[nH]c(-c3cnn(C)c3C#N)cc12)c1ccc2c(n1)OCCO2`, the Inhibition in data set [2] worked out at 10%; in data set [12], 9%. Moreover, the inhibition in [3] was 42%; in data set [4], 3%; in [5], 46%; in [6], -3%; in [7], 2%; in [8] it was 31%. Further, the inhibition in data set [9] is 18%; in data set [10], 9%; in data set [11], 58%; in data set [13], 0%.

With `C[C@H](C(=O)O)[C@@H](NC(=O)c1ncnc2[nH]ccc12)c1ccc(Br)cc1`, the inhibition in data set [1] was -9%; in data set [3], -2%; in [4], -8%; in [6], 12%; in data set [7] it was 0%; in [8], 2%. In addition, the inhibition in data set [9] is -4%; in data set [10], -6%; in data set [13] it was 0%. The values for the Inhibition in [2] and in [12] were 6% and -12%, respectively.

Take `Cn1ncc(-c2cc3c(N[C@@H](c4ccc5c(n4)OCCO5)C(C)(C)C)ncnc3[nH]2)c1C#N`: the inhibition in [1] is -8%; in [3] it was 9%; in [4], 4%; in data set [5] it was 33%; in data set [6], 5%; in data set [7], -5%. Also, the inhibition in [8] worked out at 33%; in [9] it was 25%; in data set [10], 27%; in data set [11], 15%; in [13], 5%. The Inhibition in [2] was found to be 34%; in [12] it was 21%.

Turning to `CC(C)[C@@H](Nc1ncnc2[nH]c(C(=O)N[C@@H]3CCN(C)C3)cc12)c1ccc2c(c1)S(=O)(=O)CCC2`, the inhibition in [1] is -9%; in [3], -6%; in data set [4], -3%; in [5], -10%; in data set [6], -5%; in data set [7], -2%. The inhibition in data set [8] is 78%; in [9] it was 52%; in data set [10], -1%; in data set [13], 2%. Further, the values for the Inhibition in [2] and in [12] were 16% and -6%, respectively.

Consider `CNC(=O)Cn1cc(-c2cc3c(N[C@@H](c4ccc5c(c4)S(=O)(=O)CCC5)C(C)C)ncnc3[nH]2)cn1`, for which the inhibition is -9% in data set [1]; -4% in data set [3]; 0% in [4]; -10% in data set [5]; 0% in data set [6]; 21% in data set [8]. Also, the inhibition in data set [9] was 7%; in [10] it was -7%; in [11], 7%; in data set [13] it was -2%. In addition, the Inhibition was 11% in data set [2] and -1% in [12].

On to `CC(C)[C@H](Nc1ncnc2[nH]ccc12)c1ccc2c(c1)S(=O)(=O)CCC2`, for which the inhibition in [1] was 5%; in data set [3], -1%; in data set [4], -1%; in data set [6], 0%; in [7] it was 1%; in data set [8], 84%. The inhibition is 34% in [9], -3% in [10], 30% in data set [11] and -10% in [13]. Also, the Inhibition in [2] is on record as -5%; in [12], 12%.
